Values quoted from earlier work in US10328111B2, “Water-soluble phytocannabinoid formulations” (Solva, LLC, priority 2014, dated 2019).

SMILES: C=C(C)[C@@H]1CCC(C)=C[C@H]1c1c(O)cc(CCCCC)cc1O [cannabidiol]
- oral bioavailability: about 6%
